Measurements reported in patent EP0510271A1, “Novel R106 compounds” (TAKARA SHUZO CO. LTD., priority 1991, dated 1992).
*1 amine or outer side, *2 acyl side, *3 side chain or, on linkers, in order; H or OH if unused. Where a SMILES comes first, the peptide text is derived from it. [ ]: non-standard residue; d: D form. ξ: configuration not given here. NMePhe(3-F) = CN[CH](Cc1cccc(F)c1)C(=O)O; NMePhe(2-F) = CN[CH](Cc1ccccc1F)C(=O)O; Phe(3-F) = N[CH](Cc1cccc(F)c1)C(=O)O; ξNMeVal(3-OH) = CNC(C(=O)O)C(C)(C)O; Phe(2-F) = N[CH](Cc1ccccc1F)C(=O)O; NMeY = CN[CH](Cc1ccc(O)cc1)C(=O)O; NMeF = CN[CH](Cc1ccccc1)C(=O)O; X1 = CCC(C)C(O[*:1])C(=O)[*:2]; Hyp = O=C(O)[CH]1C[CH](O)CN1; NMeV = CN[CH](C(=O)O)C(C)C; NMeS = CN[CH](CO)C(=O)O; Thz = O=C(O)[CH]1CSCN1

Experiment: solubility in water
Conditions: compared with antibiotics R106
With `CCC(C)C1NC(=O)C2CCCN2C(=O)C(Cc2ccccc2F)N(C)C(=O)C(Cc2ccccc2F)NC(=O)C(C(C)C)N(C)C(=O)C(C(C)CC)OC(=O)C(C(C)(C)O)N(C)C(=O)C(CC(C)C)NC(=O)C(C(C)C)N(C)C1=O` (stereo not drawn) [Compound 1] (cyclo([ξNMeVal(3-OH)][X1][NMeV][Phe(2-F)][NMePhe(2-F)]PI[NMeV]L); configuration not given here) the solubility in water was “higher solubility in water than antibiotics R106”. For `CCC(C)C1NC(=O)C2CCCN2C(=O)C(Cc2cccc(F)c2)N(C)C(=O)C(Cc2cccc(F)c2)NC(=O)C(C(C)C)N(C)C(=O)C(C(C)CC)OC(=O)C(C(C)(C)O)N(C)C(=O)C(CC(C)C)NC(=O)C(C(C)C)N(C)C1=O` (stereo not drawn) [Compound 2] (cyclo([ξNMeVal(3-OH)][X1][NMeV][Phe(3-F)][NMePhe(3-F)]PI[NMeV]L); configuration not given here), the solubility in water was “higher solubility in water than antibiotics R106”. In the case of `CCC(C)C1NC(=O)C2CCCN2C(=O)C(Cc2ccc(O)cc2)N(C)C(=O)C(Cc2ccc(O)cc2)NC(=O)C(C(C)C)N(C)C(=O)C(C(C)CC)OC(=O)C(C(C)(C)O)N(C)C(=O)C(CC(C)C)NC(=O)C(C(C)C)N(C)C1=O` (stereo not drawn) [Compound 3] (cyclo([ξNMeVal(3-OH)][X1][NMeV]Y[NMeY]PI[NMeV]L); configuration not given here), the solubility in water is reported as “higher solubility in water than antibiotics R106”. In the case of `CCC(C)C1NC(=O)C2CC(O)CN2C(=O)C(Cc2ccccc2)N(C)C(=O)C(Cc2ccccc2)NC(=O)C(C(C)C)N(C)C(=O)C(C(C)CC)OC(=O)C(C(C)(C)O)N(C)C(=O)C(CC(C)C)NC(=O)C(C(C)C)N(C)C1=O` (stereo not drawn) [Compound 4] (cyclo([ξNMeVal(3-OH)][X1][NMeV]F[NMeF][Hyp]I[NMeV]L); configuration not given here), the solubility in water is reported as “higher solubility in water than antibiotics R106”. With `CCC(C)C1NC(=O)C2CSCN2C(=O)C(Cc2ccccc2)N(C)C(=O)C(Cc2ccccc2)NC(=O)C(C(C)C)N(C)C(=O)C(C(C)CC)OC(=O)C(C(C)(C)O)N(C)C(=O)C(CC(C)C)NC(=O)C(C(C)C)N(C)C1=O` (stereo not drawn) [Compound 5] (cyclo([ξNMeVal(3-OH)][X1][NMeV]F[NMeF][Thz]I[NMeV]L); configuration not given here) the solubility in water was “higher solubility in water than antibiotics R106”. In the case of `CCC(C)C1NC(=O)C2CCCN2C(=O)C(CO)N(C)C(=O)C(Cc2ccccc2)NC(=O)C(C(C)C)N(C)C(=O)C(C(C)CC)OC(=O)C(C(C)(C)O)N(C)C(=O)C(CC(C)C)NC(=O)C(C(C)C)N(C)C1=O` (stereo not drawn) [Compound 9] (cyclo([ξNMeVal(3-OH)][X1][NMeV]F[NMeS]PI[NMeV]L); configuration not given here), the solubility in water is reported as “higher solubility in water than antibiotics R106”.
